Tests used:
[1] = cited from earlier work
[2] = effectiveness compared with testosterone; conditions: more effective than testosterone

Compound | biological effectiveness compared with testosterone [1] | effectiveness relative to testosterone [2]
C[C@@H]1CC2=CC(=O)CC[C@@H]2[C@H]2CC[C@]3(C)[C@@H](O)CC[C@H]3[C@@H]21 [7α-methyl-19-nortestosterone] | higher biological effectiveness than testosterone | 
C[C@@H]1CC2=CC(=O)CC[C@@H]2[C@@H]2[C@@H]1[C@@H]1CC[C@H](O)[C@@]1(C)C[C@@H]2F [Compound A, 11β-fluoro-17β-hydroxy-7α-methyl-estr-4-en-3-one] |  | about 10 ×

Reference: patent US20060100180A1, “Composition containing an androgenous 11b-halogen steroid and a progestational hormone, and male contraceptive based on said composition” (priority 2002, published 2006)
